What is called IC50 is the midpoint of a concentration-inhibition curve.

Data set [1] relates to A2780cisR ovarian carcinoma cell line. Description: MTT assay, inhibition of cell viability. It is filed as cell-based. As to conditions: for cytotoxic activity (in words): A2780cisR, statement drawn from Table 1; for IC50: cisplatin-resistant A2780cisR ovarian carcinoma cell line, 72 hours of incubation, MTT assay. How it is done: (§1) The effects of the clusters on the cancer cell growth were evaluated after an exposure period of 72 hours using the MTT [3-(4,5-dimethylthiazol-2-yl)-2,5-diphenyltetrazolium bromide] assay which measures mitochondrial dehydrogenase activity as an indication of cell viability. In addition, the dose-response curves for 1a and 1b against the two cell lines are illustrated in Figures 2a and 2b. Table 1. Inhibition of cell viability (IC50) of complexes on A2780 and A2780cisR ovarian carcinoma cell lines after 72 hours of incubation, determined using MTT assay.
For orientation: Formazan colour is commonly taken as a measure of viable cells.

Data set [2] deals with A2780 ovarian carcinoma cell line. Put plainly: MTT assay, inhibition of cell viability. It is filed as cell-based. As to conditions: for cytotoxic activity (in words): A2780, statement drawn from Table 1; for IC50: A2780 ovarian carcinoma cell line, 72 hours of incubation, MTT assay. Here is the method: as §1

As to “[(η^6-C6H6)(η^6-1,4-^iPrC6H4Me)(η^6-C6Me6)Ru3(µ-H)3(µ3-O)][BF4] [Compound 1b]”, in data set [1], the “cytotoxic activity (in words)” value was “remarkably active” and half-maximal inhibition (IC50) required 28.9 ± 2.8 µM. Moreover, in data set [2], the “cytotoxic activity (in words)” value is “remarkably active” and the midpoint of inhibition, the IC50, lay at 9.1 ± 0.9 µM.
As for “[(η^6-C6H6)(η^6-C6Me6)2Ru3(µ-H)3(µ3-O)][BF4] [Compound 1a]”, in data set [1], the “cytotoxic activity (in words)” value is on record as “remarkably active” and the IC50 stood at 14.6 ± 0.7 µM. In addition, in data set [2], the “cytotoxic activity (in words)” value is on record as “remarkably active” and it took 9.8 ± 0.2 µM to reach half-maximal inhibition (IC50).
Regarding `Cc1ccc(C(C)C)cc1.[Cl][Ru]([Cl])[PH]12CN3CN(CN(C3)C1)C2` [RAPTA-C, reference compound], the half-inhibitory concentration (IC50) in data set [1] and in data set [2] was more than 100 µM each time.
As to “[(η^6-C6H6)4Ru4(µ-H)4][BF4]2 [Compound 2a]”, the IC50 in data set [1] and in data set [2] was more than 100 µM throughout.
Take `N.N.[Cl][Pt][Cl]` [Cisplatin, reference compound]: the “increase in cisplatin resistance” value in data set [1] (A2780cisR versus A2780) was 6 fold. In addition, the IC50 amounted to 8.7 ± 1.6 µM in data set [1] and 1.5 ± 0.3 µM in data set [2].
As to “[(η^6-C6H5Me)4Ru4(µ-H)4][BF4]2 [Compound 2b]”, the IC50 in data set [1] and in data set [2] was more than 100 µM in each case.
Turning to “[(η^6-C6H6)4Ru4(µ-H)3(µ-OH)][Cl]2 [Compound 2c]”, the half-inhibitory concentration (IC50) in data set [1] and in data set [2] was more than 100 µM each time.

The values are drawn from patent publication EP2019109A1, “Trimetal-arene clusters with anticancer activity” (Université de Neuchâtel, priority 2007, dated 2009).
